Laboratory results as given in publication PMC5704756, “Hydrolysis, polarity, and conformational impact of C-terminal partially fluorinated ethyl esters in peptide models” (Beilstein Journal of Organic Chemistry, 2017).
Where “and” joins values, the source holds several entries; their conditions need not be identical. Equal values may be shown once. Read-outs that look alike come from different tables or passages of the source. Peptide text beside a SMILES is read from it. * marks the point of attachment. X1 = FC(F)CO*

Key:
Format in all cases: physicochemical
[1] = Hydrolytic stability of esters 1–5 in aqueous potassium phosphate buffer, monitored by 1H and 19F NMR; conditions: for τ½, min (aq buffer): ester hydrolysis; for half-life at 0.5 mM: aqueous potassium phosphate buffer
Source text: The kinetic stability of the ester linkage in the aqueous medium is of critical importance, as it further defines the time window for the reactions with the corresponding esters under the biologically relevant conditions of aqueous buffers. Hydrolysis of the C-terminal esters has been fairly well described in the literature, indicating the hydrolysis occurs via a pseudo-first order reaction in a buffered medium assuming that [HO^−] is constant (Equations 1–3): […]
Next, we determined the half-life values following the above mentioned kinetic model for esters 1–5 in aqueous medium at pH 11 and 298 K (Figure 2). […] For the subsequent fluorine atoms, the hydrolysis rate increased by a factor of 3–4 for each appended fluorine atom. […] Extrapolation to pH 8.0 gives a value of 107 ± 28 hours. (This procedure requires multiplication by 1000.) We experimentally determined the half-life of 5 at pH 8 to be 102 ± 2 hours, which agrees well with the extrapolation. The mutual consistency of the values determined with different kinetic modes (minutes at pH 11, days at pH 8) provides a good indication of their accuracy.
Aqueous potassium phosphate buffer (100 mM) at pH 11.0 or 8.0 was mixed with 1:10 (v/v) deuterium oxide to give 550 μL of 91 mM buffer. The analyte 1–5 was added from a 200 mM stock solution in deuterium oxide to give 0.5 mM analyte. The first NMR spectra were collected within 4 min following addition of the analyte. The monitoring was continued by recording ^1H and ^19F NMR spectra at regular time points until >50% hydrolysis. Ambient temperature was maintained at 298 ± 1 K. The decay of the integral intensity of the analyte was quantified by integration. Plotting the logarithm of the intensity versus time delivered the kinetic constant, which was converted to the half-life time (squared correlation coefficient > 0.90). The experiments were performed in triplicate.

[2] = Partitioning between octan-1-ol and water (NMR detection); conditions: for logP at 24 h: 298 K, 24 hours partitioning, NMR; for ΔlogP vs 4: relative to compound 4
Method: To characterize the lipophilicity, esters 1–5 were subjected to 24 hours of partitioning between octan-1-ol and water at 298 K. The resulting partition is illustrated in Figure 3. […] The lipophilicity of 2,2-difluoroethyl derivative 4 is nearly identical to that of parent ethyl ester 2, and the relative difference in the logP from the increase (5 vs 4, ΔlogP = +0.53 ± 0.13) and decrease (3 vs 4, ΔlogP = −0.45 ± 0.13) in the number of fluorine atoms are equivalent to one methyl group difference (2 vs 1, ΔlogP = +0.44 ± 0.08). The amplitude of the change is similar to that reported recently for the corresponding fluorinated ethanols. Importantly, C-terminal esterification maintains a much higher lipophilicity compared with the C-terminal amide 7 (Table 1).
To 4–5 mg analyte, octan-1-ol (1.00 mL) and deionized water (1.00 mL) were added. The mixture was shaken gently at ambient temperature (298 ± 2 K) for 24 hours. Each phase (200 μL) was sampled using identical NMR tubes, and acetonitrile-d3 (300 μL) was added to each sample. The NMR measurements were performed by ^1H or ^19F detection at 298 K using calibrated 90-degree pulses and one-scan experiments in order to ensure complete pre-relaxation. The same acquisition parameters were used for the octan-1-ol and water samples; for processing, only the zero phase was adjusted. The spectra were baseline corrected, and equivalent resonances were integrated. The ratio between the signal intensities was considered as the partitioning constant. The partitioning experiments were performed in triplicate. Subsequent addition of water and octan-1-ol was performed in forward and reverse manner, and the resulting partitioning constants were identical within experimental error.

[3] = Amide rotational thermodynamics and kinetics (trans/cis isomerism) by NMR / EXSY; conditions: for Ktrans/cis in C6D6: C6D6 (ε 2.27); for Ktrans/cis in C6D6 / Ktrans/cis in CD2Cl2 / Ktrans/cis in CD3CN / Ktrans/cis in CD3OD / Ktrans/cis in CDCl3 / Ktrans/cis in D2O: 298 K; for Ktrans/cis in C6D6 / Ktrans/cis in D2O: analyte 50 ± 10 mM; for k∙10^3 cis→trans in C6D6 / k∙10^3 trans→cis in C6D6: C6D6, 298 K; for k∙10^3 cis→trans in C6D6 / k∙10^3 trans→cis in C6D6 / k∙10^3 cis→trans in D2O / k∙10^3 trans→cis in D2O: EXSY NMR, amide rotation, value is k∙10^3; for Ktrans/cis in CD2Cl2: CD2Cl2 (ε 8.93); for Ktrans/cis in CD3OD: CD3OD (ε 32.7); for Ktrans/cis in CDCl3: CDCl3 (ε 4.81); for Ktrans/cis in D2O: D2O (ε 80.1), 1H/19F NMR; for k∙10^3 cis→trans in D2O / k∙10^3 trans→cis in D2O: 310 K
Source text: For 1–5, we found the trans/cis ratios ≈ 5 for all five esters when measured in aqueous medium; the kinetic parameters of the amide rotation were also nearly identical (Table 2). We then noticed that the trans/cis ratios measured for the fluorine-labeled esters 3–5 in nonpolar solvents (such as benzene) were systematically higher relative to the reference compounds 1 and 2. We tested the relative increase in the trans-amide preference ΔΔG as a function of solvent (Equation 4) and found a dependence of this parameter on the dielectric constant, as would be expected from an electrostatic interaction between the polar alkoxy group and the amide moiety (Figure 4).
The amide rotational thermodynamic and kinetic measurements were performed by NMR as described in [50, 68]. The equilibrium ratio between the rotameric states was obtained from the ^1H, ^19F and ^19F{^1H} (inverse-gated decoupling) spectra at 298 K by integration. The kinetics was measured in ^1H and/or ^19F{^1H} z-cross-relaxation experiments at either 310 K (for deuterium oxide samples) or 298 K (for benzene samples). The Jαβ-coupling values were obtained by visual inspection of the α-CH resonances in the ^1H NMR spectra, and the accuracy was defined by the length of the time domain spectrum at approximately 0.3 Hz. The semi-empirical calculations were performed by using the PM6 algorithm from the MOPAC package. DFT geometry optimization of the 5 amide rotamers was performed using B88-PW91 GGA with the DZVP basis set.

[4] = Hydrolysis of C-terminal 2,2-difluoroethyl esters of oligopeptides in buffered deuterium oxide by 19F NMR; conditions: for τ½ of ester hydrolysis (value in brackets, alternative kinetic model) / τ½ of ester hydrolysis (value outside brackets): buffered deuterium oxide, pH 7.0, 298 K; for τ½ of ester hydrolysis (value in brackets, alternative kinetic model): first (zero) order kinetic model; for τ½ of ester hydrolysis (value outside brackets): Equation 7 (zero order), first (zero) order model; for charge-induced hydrolysis acceleration factor vs 8b: pH 7, 9b, 10b vs 8b
Source text: Finally, we tested hydrolytic stability in esterified peptides 8b, 9b and 10b by observing hydrolysis of the ester using ^19F NMR in buffered deuterium oxide (pH 7). We expected pseudo-first order kinetics as for the hydrolysis of esters 1–5 at pH 11. Nonetheless, for the peptide esters 8b, 9b and 10b, the experimental decay (Figure 7) of the ester concentration resembled pseudo-zero order kinetics, which was also observed for another amino acid ester hydrolysis not shown here.
Circular dichroism spectra were recorded in a 1 mm quartz cell at 298 K in methanol (HPLC grade) or aqueous potassium phosphate buffer (50 mM, pH 7.01 at 297 K). The peptide concentration was 100 μM as determined gravimetrically. The mean residue absorption difference Δε was calculated assuming 6 residues for peptides 8a–c, 10a–c and 3 residues for peptides 9a–c. Hydrolysis was measured in deuterium oxide solution of a 150 mM potassium phosphate buffer. The buffer pH 7.01 was adjusted in water at 298 K. It was then lyophilized, then dissolved in deuterium oxide. The peptides were dissolved in the buffer, and the resulting samples were kept at 298 ± 2 K, while the ^19F NMR measurements were conducted at several time points. The starting concentrations of the analytes were 8 mM for 8b, 5 mM for 9b and 2.5 mM for 10b. The half-life was calculated using the first (zero) order kinetic model.

[5] = pH 11.0, 298 K, pseudo-first order

SMILES | τ½, min (aq buffer) [1, 5] | logP at 24 h ([2]; octan-1-ol/water) | Ktrans/cis in C6D6 [3] | k∙10^3 cis→trans in C6D6 [3] [s^−1] | k∙10^3 trans→cis in C6D6 [3] [s^−1] | Ktrans/cis in CD2Cl2 [3] | Ktrans/cis in CD3CN [3] | Ktrans/cis in CD3OD [3] | Ktrans/cis in CDCl3 [3] | Ktrans/cis in D2O [3] | k∙10^3 cis→trans in D2O [3] [s^−1] | k∙10^3 trans→cis in D2O [3] [s^−1] | τ½ of ester hydrolysis (value in brackets, alternative kinetic model) [4] [days] | other results
CCOC(=O)C1CCCN1C(C)=O (stereo not drawn) [compound 2, Ethyl N-acetylprolinate] | 603 ± 58 (pH 11.0) min | 0 | 4.67 ± 0.03 | 309 ± 14 | 67 ± 2 | 3.52±0.03 | 3.58±0.04 | 3.49±0.04 | 3.20±0.04 | 4.60 ± 0.08 | 20 ± 5 | 6 ± 1 | – | ΔlogP vs 1 ([2]; octan-1-ol/water, relative to compound 1): +0.44 ± 0.08
CC(=O)N1CCC[C@H]1C(=O)OCCF [compound 3, 2-Fluoroethyl N-acetylprolinate] | 80 ± 14 (pH 11.0) min | – | 6.80 ± 0.04 | 348 ± 11 | 52 ± 2 | 4.77±0.10 | 4.12±0.17 | 3.61±0.03 | 4.44±0.20 | 4.74 ± 0.04 | 30 ± 2 | 7 ± 1 | – | logP at 24 h [2]: -0.43 ± 0.07; ΔlogP vs 4 ([2]; octan-1-ol/water): −0.45 ± 0.13
CC(=O)N1CCC[C@H]1C(=O)OCC(F)F [compound 4, 2,2-Difluoroethyl N-acetylprolinate] | 19.7 ± 2.5 (pH 11.0) min | 0.02 | 9.06 ± 0.26 | 430 ± 17 | 47 ± 2 | 6.57±0.14 | 4.85±0.07 | 4.12±0.03 | 6.29±0.22 | 4.95 ± 0.05 | 32 ± 4 | 7 ± 1 | – | half-life at 0.5 mM ([1]; pH 7, extrapolated from pH 11 value, read-out: half-life extrapolated to pH 7.0 (converted)): 3290 h
CC(=O)N1CCC[C@H]1C(=O)OCC(F)(F)F [compound 5, 2,2,2-Trifluoroethyl N-acetylprolinate] | 6.4 ± 1.7 min | 0.55 | 10.04 ± 0.15 | 477 ± 13 | 48 ± 2 | 7.07±0.11 | 5.65±0.05 | 4.49±0.05 | 6.65±0.18 | 5.48 ± 0.14 | 35 ± 5 | 6 ± 1 | – | half-life at 0.5 mM ([1]; pH 8, extrapolated from pH 11 value (multiplication by 1000), read-out: half-life, extrapolation to pH 8.0 (converted)): 107 ± 28 h; half-life at 0.5 mM ([1]; pH 8, pH 8, 298 K, read-out: half-life at pH 8, experimentally determined (converted)): 102 ± 2 h; τ½, min (aq buffer) ([1]; pH 8.0, 298 K): 6112 ± 70 min; ΔlogP vs 4 ([2]; octan-1-ol/water): +0.53 ± 0.13
CC(=O)N1CCC[C@H]1C(N)=O [compound 7, reference compound] | – | -1.57 ± 0.1 | – | – | – | – | – | – | – | – | – | – | – | –
CC(=O)N1CCC[C@H]1C(=O)N1CCC[C@H]1C(=O)N1CCC[C@H]1C(=O)N1CCC[C@H]1C(=O)N1CCC[C@H]1C(=O)N1CCC[C@H]1C(=O)OCC(F)F [peptide 8b, Ac(Pro)6OCH2CHF2] (Ac-PPPPPP-X1) | – | – | – | – | – | – | – | – | – | – | – | – | 139 ± 20 | –
CC(=O)N[C@@H](CCCCN)C(=O)N[C@@H](CCCCN)C(=O)N[C@@H](CCCCN)C(=O)OCC(F)F [peptide 9b, Ac(Lys)3OCH2CHF2∙3HCl] | – | – | – | – | – | – | – | – | – | – | – | – | 4.5 ± 0.5 | τ½ of ester hydrolysis (value outside brackets) [4]: 5.0 ± 0.3 days and 5.0 ± 0.5 days; charge-induced hydrolysis acceleration factor vs 8b [4]: ≈ 30
CC(=O)N[C@@H](CCCCN)C(=O)N[C@@H](CCCCN)C(=O)N[C@@H](CCCCN)C(=O)N[C@@H](CCCCN)C(=O)N[C@@H](CCCCN)C(=O)N[C@@H](CCCCN)C(=O)OCC(F)F [peptide 10b, Ac(Lys)6OCH2CHF2∙6HCl] | – | – | – | – | – | – | – | – | – | – | – | – | 3.7 ± 0.3 | τ½ of ester hydrolysis (value outside brackets) [4]: 4.0 ± 0.3 days; charge-induced hydrolysis acceleration factor vs 8b [4]: ≈ 30
